{"source": "paper PMC12214830", "about": "“The human RIF1-Long isoform interacts with BRCA1 to promote recombinational fork repair under DNA replication stress” (Nature Communications, 2025)", "key": {"[1]": {"target": "BRCA1 C-terminal tandem BRCT domains (UniProt P38398)", "test": "fluorescence polarisation titration", "conditions": "reference: pS2265 peptide, untreated; sites S2265"}, "[2]": {"test_system": "RIF1-L phosphoS2265", "test": "Western blot, RIF1-L phosphoS2265, HeLa cells", "assay_type": "cell-based, human", "experimental": "Cells were harvested in 10 mM Tris-HCl pH 7.5, 2 mM EDTA buffer and lysed with laemmli sample buffer (Bio-Rad, 1610737, supplemented with 5% β-mercaptoethanol). Samples were heated at 95 °C for 15 min and centrifuged at 13,000 × g for 15 min. Protein concentrations were measured by RC DC Protein Assay (Bio-Rad, 5000122). Equal amounts of total proteins for each sample were separated in Mini-PROTEAN TGX Stain-free Precast Gels (Bio-Rad) by SDS-PAGE. Gels were at this stage imaged with the ChemiDoc Touch Imaging System (Bio-Rad) using the ‘Protein gel – Stain free’ module to obtain stain-free gel images. Proteins on gel were transferred to PVDF membranes (Bio-Rad, 1704274) using the Trans-Blot Turbo Blotting System (Bio-Rad). Membranes were blocked in 3% BSA in TBS-T (1x TBS supplemented with 0.1% Tween-20) at RT for 1 h, followed by incubation with primary antibodies overnight at 4 °C. Membranes were washed with TBS-T and then incubated with secondary antibodies for 1 h at RT. The blots were developed with Clarity ECL reagents (Bio-Rad, 1705060) and imaged with the ChemiDoc Touch Imaging System (Bio-Rad). Primary antibodies used for western blotting include anti-RIF1 (Bethyl Laboratories, A300-568A. 1:5000); anti-RIF1-L-Phospho-S2265 (amsbio, custom. 1:5000); anti-BRCA1 (D-9) (Santa Cruz Biotechnology, sc-6954. 1:1000); anti-BARD1 (Bethyl Laboratories, A300-263A. 1:1000); anti-53BP1 (Novus Biologicals, NB100-94. 1:5000); anti-PP1α (G4) (Santa Cruz Biotechnology, sc-271762. 1:1000); anti-Tubulin (YOL1/34) (Santa Cruz Biotechnology, sc-53030. 1:4000); anti-FLAG (M2) (Sigma-Aldrich, F1804. 1:2000); anti-GFP (Chromotek, 3h9. 1:2000); anti-RFP (Chromotek, 5f8. 1:2000). Uncropped and unprocessed Western Blot images are provided in the Source Data file."}, "[3]": {"test_system": "RIF1-BRCA1 proximity in HeLa cells", "test": "RIF1-BRCA1 proximity ligation assay, HeLa cells", "assay_type": "cell-based, human", "conditions": "HeLa +RIF1-L", "experimental": "(§1) Proximity ligation assays were performed using the Duolink In Situ PLA Fluorescence Protocol (Sigma-Aldrich, DUO92101) following the manufacturer’s instruction. Cells were grown on glass coverslips and treated as indicated for specific experiments. Cells were then permeabilized with 0.5% TritonX-100 in PBS for 10 min on ice, and fixed with 3% formaldehyde, 2% sucrose in PBS for 10 min at room temperature (RT). After fixation, coverslips were blocked in 3% BSA in PBS for 1 h at RT and incubated with primary antibodies (anti-RIF1, Bethel laboratories A300-568A, 1:1000 dilution; anti-BRCA1, Santa Cruz Biotechnologies, sc-6954, 1:200 dilution), for 1 h at RT in a humidity chamber. Primary antibodies were then washed off with PLA washing buffer A supplied in the Duolink In Situ PLA kit. Coverslips were next incubated sequentially with PLA Probes (1 h at 37 °C), ligation solution (30 min at 37 °C) and amplification solution (100 min at 37 °C), with washes by washing buffer A in between each step. At the end of incubation, coverslips were washed with washing buffer B supplied in the Duolink In Situ PLA kit. Coverslips were then mounted on glass slides with PLA Mounting medium with DAPI. Images were captured by fluorescence microscopy (Zeiss Axio Imager). PLA foci number in each nucleus were analysed by CellProfiler Software[74] with a custom-made pipeline.\n(§2) For proximity ligation assays and immunofluorescence signal intensity measurements, when comparing between two samples, statistical significance of differences was calculated by Mann-Whitney test for non-parametric distributions using GraphPad Prism software (v.9). When comparing among three or more samples, p values were calculated by Kruskal-Wallis test for non-parametric distributions with Dunn’s multiple comparisons using GraphPad Prism software (v.9). For RIF1 foci formation analysis (Fig. 6B), p values were calculated by two-tailed Student’s t test. For nuclear BRCA1 intensity fold change analyses (Fig. 6C, D), p values were calculated by two-tailed one-sample t test using GraphPad Prism software (v.9). For RAD51 foci formation analyses (Fig. 7B, E and Supplementary Fig. 7B), p values were calculated by chi-square test. For HR Reporter assay analysis (Fig. 7G and Supplementary Fig. 7L), p values were calculated by two-tailed paired Student’s t test. For micronuclei frequency analysis (Fig. 7H), p values were calculated by one-tailed paired Student’s t test. All Student’s t tests were performed with Excel T.TEST function. Chi-square tests were performed with the online Chi-square test calculator at https://www.socscistatistics.com/tests/chisquare2/default2.aspx. Sample number n for all box-and-whisker plots and dot plots are listed in Supplementary Data 1."}, "[4]": {"test_system": "RIF1-BRCA1 proximity in RPE-1 cells", "test": "RIF1-BRCA1 proximity ligation assay, RPE-1 cells", "assay_type": "cell-based, human", "experimental": "as §1\nFor EdU labelling combined with proximity ligation assay, cells were labelled with 10 µM EdU for 15 min, washed free of EdU and next incubated with medium containing 4 mM HU medium for 4 h. Cells were then permeabilized, fixed and subjected to RIF1-BRCA1 PLA procedures. After all PLA steps, EdU detection was performed following manufacturer’s instructions in the Click-iT EdU Imaging Kit (Invitrogen, C10640).\nas §2"}, "[5]": {"test_system": "micronuclei", "test": "micronuclei frequency, HeLa cells", "assay_type": "cell-based, human", "conditions": "Fig.7H", "experimental": "as §2"}, "[6]": {"test_system": "BRCA1 nuclear signal", "test": "BRCA1 nuclear immunofluorescence intensity, HeLa cells", "assay_type": "cell-based, human", "experimental": "Cells were grown on glass coverslips and treated as desired. Cells were then permeabilized with 0.5% TritonX-100 in PBS for 7 min on ice, and fixed with 4% w/v formaldehyde solution (Sigma HT5012) for 10 min at room temperature (RT). After fixation, coverslips were blocked with 3% BSA in PBS (RT, 1 h), incubated with primary antibodies (RT, 2 h), washed with PBS three times and incubated with secondary antibodies (RT, 1 h). Primary antibodies used for immunofluorescence include anti-γH2A.X (20E3) (Cell Signalling Technology, 9718. 1:500); anti-RPA32/RPA2 (9H8) (Abcam, ab2175. 1:200); anti-RAD51 (H92) (Santa Cruz Biotechnology, sc-8349. 1:100); anti-BrdU (B44) (BD Biosciences, 347580. 1:100); Coverslips were then mounted on glass slides with mounting medium with DAPI. Images were captured by either standard (Zeiss Axio Imager) or confocal (Zeiss LSM-880) microscopy. Fluorescence signal intensities within each nucleus were analysed by CellProfiler software with custom-made pipelines. […]\nas §2, with “All Student’s t tests were performed with Excel T.TEST function. Chi-square tests were performed with the online Chi-square test calculator at https://www.socscistatistics.com/tests/chisquare2/default2.aspx. Sample number n for all box-and-whisker plots and dot plots are listed in Supplementary Data 1.” left out"}, "[7]": {"test_system": "BRCA1-BRCT domain", "test": "X-ray crystal structure of peptide with BRCA1-BRCT (PDB 8RS8)", "assay_type": "binding, human", "experimental": "For crystallographic studies, the N-terminal HIS-SUMO tag was removed from the His6-SUMO-BRCA1-BRCT2 by incubation with GST-3C protease (in house) for 12 h at 4 °C. A Superdex 75 16/60 size exclusion column (GE Healthcare) was used to purify the BRCT2 domains to homogeneity in 10 mM HEPES pH 7.5, 200 mM NaCl, 0.5 mM TCEP.\nAn unlabelled RIF1 pS2265 peptide (SPGSR(pS)PKFKS) (Peptide Protein Research Ltd, Bishops Waltham, UK) was mixed with the pure BRCA1-BRCT2 domains at a five molar excess prior to concentration to 15 mg/ml for use in crystallisation trials. Crystals grew in condition MORPHEUS E2 (55.5 mM MES, 44.5 mM Imidazole, 120 mM Diethylene glycol, 120 mM Triethylene-glycol, 120 mM Tetraethylene glycol, 120 mM Pentaethylene glycol, 20% (v/v) Ethylene glycol, 10% (w/v) PEG 8000) (Molecular Dimensions) and were looped before flash freezing in liquid nitrogen. Data were collected on beamline I04-1 at the Diamond Synchrotron Lightsource and the structure was determined using PHASER[70] to perform molecular replacement with PDB 4IGK as a search model before refinement using the PHENIX software package. Figures were produced using PyMOL v2.2.2."}, "[8]": {"conditions": "ATRi (VE-821) 1 µM 24 h + HU 4 mM 24 h"}, "[9]": {"conditions": "Fig S4H, ATRi (VE-821) 1µM + HU 4mM 24hr"}, "[10]": {"conditions": "Fig 4F, ATRi (VE-821) 1 µM 24 h + HU 4 mM 24 h"}, "[11]": {"conditions": "Fig S4G (repeat), ATRi (VE-821) 1µM + HU 4mM 24hr"}, "[12]": {"conditions": "Chk1i (PF-477736) 1 µM 24 h + HU 4 mM 24 h"}, "[13]": {"conditions": "Fig 4F, Chk1i (PF-477736) 1 µM 24 h + HU 4 mM 24 h"}, "[14]": {"conditions": "Fig S4G (repeat), Chk1i (PF-477736) 1µM + HU 4mM 24hr"}}, "note": "Entries after “also recorded” stand apart in the source; their conditions may differ. Non-standard residues stand in square brackets, D forms with d. No end group written: not given here. pS = N[C@@H](COP(=O)(O)O)C(=O)O"}
{"compound": "RIF1-Long (RIF1-L) (from UniProt Q5UIP0) λ phosphatase treated peptide", "values": [{"measurement": "binding against the reference", "setting": "[1]", "value": "lost"}]}
{"compound": "CS(=O)(=O)c1ccc(-c2cnc(N)c(C(=O)Nc3ccccc3)n2)cc1", "note": "[VE-821]", "values": [{"measurement": "HU-induced reduction of phosphoS2265 signal", "setting": "[2]; [8]", "value": "reversed by simultaneous ATR inhibition"}, {"measurement": "RIF1-BRCA1 PLA foci per nucleus, mean", "setting": "[3]; [9]", "value": 13.09}, {"measurement": "RIF1-BRCA1 PLA foci per nucleus, median", "setting": "[3]; [9]", "value": 12}, {"measurement": "RIF1-BRCA1 PLA", "setting": "[3]; [8]", "value": "also reduced RIF1-BRCA1 PLA"}, {"measurement": "RIF1-BRCA1 proximity signal", "setting": "[4]; [8]", "value": "significantly lowered the RIF1-BRCA1 proximity signal"}, {"measurement": "RIF1-BRCA1 PLA foci per nucleus, mean", "setting": "[4]; [10]", "value": 1.672}, {"measurement": "RIF1-BRCA1 PLA foci per nucleus, median", "setting": "[4]; [10]", "value": 1}, {"measurement": "RIF1-BRCA1 PLA foci per nucleus, mean", "setting": "[4]; [11]", "value": 1.661}, {"measurement": "RIF1-BRCA1 PLA foci per nucleus, median", "setting": "[4]; [11]", "value": 1}]}
{"compound": "Cn1cc(-c2[nH]c3cc(NC(=O)[C@H](N)C4CCCCC4)cc4c3c2C=NNC4=O)cn1", "note": "[PF-477736]", "values": [{"measurement": "HU-induced reduction of phosphoS2265 signal", "setting": "[2]; [12]", "value": "partially reversed by Chk1 inhibition"}, {"measurement": "RIF1-BRCA1 PLA foci formation", "setting": "[4]; [12]", "value": "abolished PLA foci formation"}, {"measurement": "RIF1-BRCA1 PLA foci per nucleus, mean", "setting": "[4]; [13]", "value": 0.156}, {"measurement": "RIF1-BRCA1 PLA foci per nucleus, median", "setting": "[4]; [13]", "value": 0}, {"measurement": "RIF1-BRCA1 PLA foci per nucleus, mean", "setting": "[4]; [14]", "value": 0.316}, {"measurement": "RIF1-BRCA1 PLA foci per nucleus, median", "setting": "[4]; [14]", "value": 0}]}
{"compound": "RIF1-L", "values": [{"measurement": "Micronuclei per 100", "setting": "[5]; HU, experiment 14Apr2024", "value": 7.605}, {"measurement": "Micronuclei per 100", "setting": "[5]; HeLa RIF1 KO + GFP-RIF1 derivative cells, HU, experiment 07Jun2024", "value": 5.84}, {"measurement": "Micronuclei per 100", "setting": "[5]; HeLa RIF1 KO + GFP-RIF1 derivative cells, unt, experiment 07Jun2024", "value": 3.60}, {"measurement": "Micronuclei per 100", "setting": "[5]; unt, experiment 14Apr2024", "value": 3.159}, {"measurement": "BRCA1 nuclear signal mean intensity", "setting": "[6]; Exp 1", "value": 12.65}, {"measurement": "BRCA1 nuclear signal mean intensity", "setting": "[6]; Exp 2", "value": 11.6}, {"measurement": "BRCA1 nuclear signal mean intensity", "setting": "[6]; Exp 3", "value": 10.09}]}
{"compound": "SPGSR[pS]PKFKS [RIF1-L phospho-peptide, unlabelled RIF1 pS2265 peptide used for crystallography]", "values": [{"measurement": "binding mode in crystal", "setting": "[7]; MORPHEUS E2", "value": "fits within the BRCT pocket of BRCA1 as expected; also recorded: positively charged amino acids K^2267 and K^2269 of RIF1-L lie adjacent to the negatively charged E^1698 BRCA1 residue"}, {"measurement": "binding mode in crystal", "setting": "[7]; MORPHEUS E2, listed as RIF1-L peptide", "value": "found in the canonical phosphate binding pocket of the BRCA1 BRCTs"}]}
